Data from ChEMBL document CHEMBL5380880, “Novel drug-like fluorenyl derivatives as selective butyrylcholinesterase and β-amyloid inhibitors for the treatment of Alzheimer's disease” (Bioorg Med Chem, 2023).
Calls of active or inactive are those of the source. No cut-off for these calls is given here.

Tests used:
[1] = Lipophilicity, logP of compound; format: physicochemical; conditions: octanol/water
[2] = target: Amyloid-beta precursor protein (Homo sapiens) (UniProt P05067); assay: Inhibition of amyloid beta (unknown origin) aggregation at 10 uM incubated for 5 mins by thioflavin fluorescent based analysis relative to control
[3] = Lipophilicity, logD of compound at pH 7.4; format: physicochemical; conditions: buffer
Cholinesterase = Cholinesterase (Equus caballus, UniProt P81908); assay: Inhibition of equine serum BuChE by Ellman's method
[4] = target: Acetylcholinesterase (Electrophorus electricus) (UniProt O42275); assay: Inhibition of Electric eel AChE relative to control; conditions: concentration not given here
[5] = target: Cholinesterase (Equus caballus) (UniProt P81908); assay: Inhibition of equine serum BuChE at 10 uM by Ellman's method relative to control
[6] = target: Cholinesterase (Equus caballus) (UniProt P81908); assay: Inhibition of equine serum BuChE

Chain of Amyloid-beta precursor protein (Homo sapiens) (P05067 whole entry): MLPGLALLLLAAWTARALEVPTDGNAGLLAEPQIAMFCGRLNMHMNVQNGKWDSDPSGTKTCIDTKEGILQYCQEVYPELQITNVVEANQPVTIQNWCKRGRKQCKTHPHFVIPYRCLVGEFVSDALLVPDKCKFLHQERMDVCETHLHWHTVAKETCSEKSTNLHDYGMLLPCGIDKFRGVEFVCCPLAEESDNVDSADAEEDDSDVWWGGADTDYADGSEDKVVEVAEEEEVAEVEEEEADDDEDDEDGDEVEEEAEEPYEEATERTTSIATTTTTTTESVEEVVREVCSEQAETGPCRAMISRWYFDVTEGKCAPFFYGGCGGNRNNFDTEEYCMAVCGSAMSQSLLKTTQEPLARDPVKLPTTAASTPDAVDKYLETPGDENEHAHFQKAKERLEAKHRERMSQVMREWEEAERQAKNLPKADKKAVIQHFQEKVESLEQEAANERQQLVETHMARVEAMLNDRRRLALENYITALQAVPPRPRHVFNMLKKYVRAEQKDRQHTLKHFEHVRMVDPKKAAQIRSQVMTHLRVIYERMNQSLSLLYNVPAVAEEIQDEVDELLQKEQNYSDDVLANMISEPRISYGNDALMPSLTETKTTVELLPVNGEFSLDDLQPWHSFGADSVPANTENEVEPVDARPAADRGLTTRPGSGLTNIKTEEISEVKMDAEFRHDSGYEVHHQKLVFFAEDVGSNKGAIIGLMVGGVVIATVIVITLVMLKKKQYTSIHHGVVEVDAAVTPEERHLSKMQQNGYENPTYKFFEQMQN
Chain of Cholinesterase (P81908 whole entry): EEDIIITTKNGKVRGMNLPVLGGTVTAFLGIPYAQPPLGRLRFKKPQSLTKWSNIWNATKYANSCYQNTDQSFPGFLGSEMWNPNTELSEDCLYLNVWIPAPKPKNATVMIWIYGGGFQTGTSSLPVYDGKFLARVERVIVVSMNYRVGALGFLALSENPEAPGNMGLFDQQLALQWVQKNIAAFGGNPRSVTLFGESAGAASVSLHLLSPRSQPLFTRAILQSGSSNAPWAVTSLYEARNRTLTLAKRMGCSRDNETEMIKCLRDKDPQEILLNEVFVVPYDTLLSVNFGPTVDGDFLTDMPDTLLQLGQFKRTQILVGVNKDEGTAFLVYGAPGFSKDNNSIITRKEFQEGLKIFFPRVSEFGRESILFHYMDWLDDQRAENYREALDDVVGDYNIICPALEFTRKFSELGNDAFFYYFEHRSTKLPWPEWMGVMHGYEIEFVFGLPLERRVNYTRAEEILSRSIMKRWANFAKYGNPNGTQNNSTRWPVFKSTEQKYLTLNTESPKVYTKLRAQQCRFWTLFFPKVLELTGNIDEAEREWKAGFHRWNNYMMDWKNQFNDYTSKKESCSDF
Chain of Cholinesterase (Equus caballus) (P81908 whole entry): as above
Chain of Acetylcholinesterase (Electrophorus electricus) (O42275 24-633 limits assumed): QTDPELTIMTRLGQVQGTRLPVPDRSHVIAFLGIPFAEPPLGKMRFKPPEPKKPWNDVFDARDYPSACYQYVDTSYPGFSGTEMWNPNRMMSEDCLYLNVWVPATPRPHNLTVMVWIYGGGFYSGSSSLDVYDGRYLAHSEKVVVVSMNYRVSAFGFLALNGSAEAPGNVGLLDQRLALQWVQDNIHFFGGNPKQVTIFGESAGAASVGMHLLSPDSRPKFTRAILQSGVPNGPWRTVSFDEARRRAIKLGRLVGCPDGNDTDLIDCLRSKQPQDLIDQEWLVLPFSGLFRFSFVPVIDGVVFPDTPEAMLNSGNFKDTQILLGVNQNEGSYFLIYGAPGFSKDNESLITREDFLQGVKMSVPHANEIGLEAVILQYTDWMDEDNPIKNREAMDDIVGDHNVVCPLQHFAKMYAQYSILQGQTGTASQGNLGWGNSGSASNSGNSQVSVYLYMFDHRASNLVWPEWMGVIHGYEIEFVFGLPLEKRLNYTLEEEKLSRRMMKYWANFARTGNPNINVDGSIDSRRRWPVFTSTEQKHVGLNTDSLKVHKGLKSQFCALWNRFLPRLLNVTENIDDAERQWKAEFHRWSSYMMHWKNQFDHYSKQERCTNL

Compound: CC(C)(C)c1cccc(CNCC(O)CNCCC(c2ccccc2)c2ccccc2)c1 (centres undefined)
- logP [1]: 5.96
- inhibition [2]: 4.6%
- logD [3]: 3.7

Compound: O=C(CC(c1ccccc1)c1ccccc1)NCC(O)CNCC1CCCCC1 (centres undefined)
- inhibition [2]: 4.6%
- logD [3]: 1.43
- IC50 (Cholinesterase): 78 nM

Compound: O=C(NC[C@@H](O)CNCC1CCCCCC1)C1c2ccccc2-c2ccccc21
- inhibition [2]: 4.6%
- IC50 (Cholinesterase): 31 nM

Compound: O=C(NC[C@H](O)CNCC1CCCCCC1)C1c2ccccc2-c2ccccc21
- inhibition [2]: 4.6%
- IC50 (Cholinesterase): 288 nM

Compound: Nc1c2c(nc3ccccc13)CCCC2
- inhibition [2]: 4.6%

Compound: CC(C)(C)CNCC(O)CNC(=O)CC1c2ccccc2-c2ccccc21 (racemic)
- inhibition [2]: 4.6%
- logD [3]: 0.73
- IC50 (Cholinesterase): 672 nM

Compound: O=C(NCC(O)CNCC1CCCCC1)C1c2ccccc2-c2ccccc21 (racemic)
- inhibition [2]: 4.6%
- logD [3]: 0.91
- IC50 (Cholinesterase): 231 nM

Compound: O=C(NCC(O)CNCCC1CCCCC1)C1c2ccccc2-c2ccccc21 (racemic)
- inhibition [2]: 60.7%
- logD [3]: 1.41
- IC50 (Cholinesterase): 475 nM

Compound: O=C(CC1c2ccccc2-c2ccccc21)NCC(O)CNCCC1CCCCC1 (racemic)
- inhibition [2]: 4.6%
- logD [3]: 1.6
- IC50 (Cholinesterase): 422 nM

Compound: O=C(NCC(O)CNCC1CCCCCC1)C1c2ccccc2-c2ccccc21 (racemic)
- inhibition [2]: 4.6%
- logD [3]: 1.36
- IC50 (Cholinesterase): 38 nM

Compound: O=C(CC1c2ccccc2-c2ccccc21)NCC(O)CNCC1CCCCCC1 (racemic)
- inhibition [2]: 4.6%
- logD [3]: 1.55
- IC50 (Cholinesterase): 1090 nM

Compound: O=C(CC1c2ccccc2-c2ccccc21)NCC(O)CNCC1CCCCC1 (racemic)
- inhibition [2]: 4.6%
- logD [3]: 1.1
- IC50 (Cholinesterase): 1690 nM

Compound: O=C(CC1c2ccccc2-c2ccccc21)NCC(O)CNCC1CC1 (racemic)
- inhibition [4]: > 20%
- inhibition [2]: 4.6%
- inhibition [5]: 44.5%
- inhibition [6]: inactive
- logD [3]: -0.1

Compound: O=C(NCC(O)CNCc1ccccc1)C1c2ccccc2-c2ccccc21 (racemic)
- inhibition [2]: 4.6%
- logD [3]: 1.78
- IC50 (Cholinesterase): 627 nM

Compound: O=C(CC1c2ccccc2-c2ccccc21)NCC(O)CNC1CCCCC1 (racemic)
- inhibition [2]: 4.6%
- logD [3]: 0.79
- IC50 (Cholinesterase): 1490 nM

Compound: CC(C)(C)CNCC(O)CNC(=O)C1c2ccccc2-c2ccccc21 (racemic)
- inhibition [2]: 4.6%
- logD [3]: 0.54
- IC50 (Cholinesterase): 385 nM

Compound: O=C(CC1c2ccccc2-c2ccccc21)NCC(O)CNCC1CCCC1 (racemic)
- inhibition [2]: 4.6%
- logD [3]: 0.66
- IC50 (Cholinesterase): 1710 nM

Compound: O=C(CC1c2ccccc2-c2ccccc21)NCC(O)CNCc1ccccc1 (racemic)
- inhibition [2]: 4.6%
- logD [3]: 1.88
- IC50 (Cholinesterase): 4330 nM

Compound: O=C(NCC(O)CNCC1CC1)C1c2ccccc2-c2ccccc21 (racemic)
- inhibition [2]: 4.6%
- logD [3]: -0.29
- IC50 (Cholinesterase): 435 nM

Compound: O=C(NCC(O)CNC1CCCCC1)C1c2ccccc2-c2ccccc21 (racemic)
- inhibition [2]: 4.6%
- logD [3]: 0.6
- IC50 (Cholinesterase): 336 nM

Compound: O=C(NCC(O)CNCC1CCCC1)C1c2ccccc2-c2ccccc21 (racemic)
- inhibition [2]: 4.6%
- logD [3]: 0.47
- IC50 (Cholinesterase): 379 nM

Compound: O=C(NCC(O)CNCC(F)(F)F)C1c2ccccc2-c2ccccc21 (racemic)
- inhibition [2]: 67.6%
- logD [3]: 2.33
- IC50 (Cholinesterase): 12900 nM
